According to article PMC10982999, “Structure-Guided Design and Optimization of Covalent VHL-Targeted Sulfonyl Fluoride PROTACs” (Journal of Medicinal Chemistry, 2024):

How the values were obtained:
[1] = molecular target: T1, BRD4 (HEK293 HiBiT-BRD4 Cln3 cells) (Homo sapiens, UniProt O60885); assay: BRD4 HiBiT degradation assay; assay type: cell-based
T1 construct: GSK; host or cells: HEK293 HiBiT-BRD4 Cln3
Method: Figure 3 (A) Structure of BRD-SF2. […] BRD4 and loading control GAPDH levels were visualized by Western blotting. […] (D) HEK293 HiBiT-BRD4 Cln3 cells were treated with epoxomicin (1 μM) for 3 h, followed by the respective PROTAC or VHL-SF2 dose-dependently (75–0.01 μM) for 18 h. […] (E) HEK293 HiBiT-BRD4 Cln3 cells were treated with MLN4924 (1 μM) for 3 h, followed by the respective PROTAC or VHL-SF2 dose-dependently (75–0.01 μM) for 18 h. […] (F) Structure of AR-VHL-SF2 and AR2-VHL-SF2. […] The data the show mean ± SEM (n = 3).
Cellular BRD4/AR HiBiT assay
The HiBiT tagged cells were seeded at 10,000 cells per well in a 384-well plate (Thermo Scientific, 164610) at 25 µL per well in DMEM media containing 10% FBS and incubated overnight. Compounds were dispensed using D300e Digital Dispenser (HP) and normalized to 0.1% DMSO. Cells were pre-treated with Epoxomicin or MLN4924 for 3 h before treatment or directly with the PROTAC degraders for 18 or 24 h. Nano -Glo HiBiT lytic detection assay was performed as described in the manufacturer protocol (Promega). 25 µL of premixed detection reagent was added to each well of the 384 well assay plate and incubated for 15 min on an orbital shaker (at 600 RPM), and luminescence was read using a PHERAstar FS plate reader (BMG Labtech). Corresponding background RLU values were subtracted from DMSO control values and the percentage of protein (%) of were then calculated against […]
DMSO-treated controls. […]

[2] = molecular target: T2, VHL (VCB) (Homo sapiens, UniProt P40337); assay: Intact-protein LC-MS of VCB labelling; assay type: binding; conditions: 100 μM compound, 24 h, room temperature
T2 construct: human VHL (UniPort entry P40337, residues 1 -213); 6xHis followed by TEV site (N, cleaved yes); made in house; host or cells: E. coli One Shot BL21(DE3)
Method: Initially, we subjected VHL-SF2-Biotin to the streptavidin shift assay and observed a greater extent of VHL modification (44%) than for VHL-SF1-Biotin under the same conditions (Figure S2). […] Intact LC–MS analysis confirmed single labeling of VHL by VHL-SF2, with 65% conversion at 24 h (Figure S5). Although we attempted several site ID identification experiments by digesting the labeled recombinant VHL, the Ser110-containing peptide was not detected in the samples treated with VHL-SF2. This observation is consistent with a change in peptide properties that is incompatible with mass spectrometry detection compared to untreated samples (Table S2). […]
Figure S4. Dose-response of VHL-SF1 following a 2 h pre-incubation in the presence of VCB and FAM-conjugated HIF1α-derived peptide, assessed by fluorescence polarization. […]
HEK293 cells (10 × 10^6 cells at 2 × 10^5 cells/ mL) were transfected with 2.6 µg of VHL-NanoLuc plasmid (PROMEGA) plus 24 µg of transfection carrier plasmid (PROMEGA) and incubated for 20 h at 37 °C, in a 5% CO2 incubator. […] Immediately after addition of tracer and compounds, cells were treated with digitonin after which NanoBRET Nano-Glo Substrate and inhibitor were added and BRET signal was measured in a Clariostar plate reader (BMG Labtech) at 450 nm and 610 nm within 5 min after addition of digitonin. […]

Cc1cc([C@H](C(=O)N2C[C@H](S(=O)(=O)F)C[C@H]2C(=O)N[C@@H](CC(=O)OC(C)(C)C)c2ccc(-c3scnc3C)cc2)C(C)C)on1 [VHL-SF2, tert-Butyl (S)-3-((2S,4R)-4-(Fluorosulfonyl)-1-((R)-3-methyl-2-(3-methylisoxazol-5-yl)butanoyl)pyrr-olidine-2-carboxamido)-3-(4-(4-methylthiazol-5-yl)phenyl)propanoate]
effect on BRD4 levels ([1]; 18 h, 75 μM-1 pM): did not affect BRD4 levels
DC50 ([1]; read-out: BRD4 DC50): > 75 µM
conversion, single (mono) labelling of VHL [2]: 65%
